{"source": "patent US20220257684A1", "about": "“ANTI-COCCIDIAL PHYTOGENIC FORMULATIONS” (priority 2019, published 2022)", "key": {"[1]": {"system": "E. tenella challenged chickens", "assay": "Fecal oocyst excretion in E. tenella challenged chickens", "format": "in vivo, chicken", "text": "(§1) FIG. 4A is a schematic drawing showing the experimental protocol used in in vivo studies. Birds in untreated groups had daily access to standard diet, and birds in treated groups were fed with diet containing salinomycin, A. indica (AI), B. pilosa (BP), or a mixture of AI plus BP. On day 7, chickens were challenged with PBS or E. tenella (ET) sporulated oocysts (1×10^4) by gavage. The survival rate in each group was monitored from day 1 to 7 post infection.\n(§2) Birds, diets, and experimental design. One-day-old Lohmann broiler chicks hatched at Taichung Hatchery (Taiwan) were wing-banded upon arrival, weighed, and randomly placed in Petersime starter brooder units. At 1 to 2 days post-hatching, the birds were given free access to water and diets. The diets were formulated by mixing a base diet with a carrier alone (control diet) or with an indicated dose of a phytogenic formulation comprising Artemisia indica (AI), B. pilosa (BP), or both AI and BP. After grouping, birds were tube-fed with Eimeria oocysts to get infection. Growth performance (body weight and feed conversion), pathology (bloody droppings and gut morphometry) and survival rate were measured and examined (FIG. 4A). All birds were maintained in the institutional animal facility and handled according to institutional guidelines.\n(§3) The anti-coccidial effects of the extracts of A. indica (AI), B. pilosa (BP) and a combination of both extracts were examined in vivo. Chickens were randomly divided into 8 groups and given daily (Day 1 to Day 14) access to standard chicken feed (Groups 1 and 2), feed containing salinomycin (Group 3), or feed containing the plant extracts (Groups 4 to 8) at the indicated doses (FIG. 4A).\nExcretion of Eimeria oocysts in the feces of ET-infected chickens is an indicator of Eimeria multiplication. The oocysts per gram feces (OPG) in the chickens from FIG. 4B were counted from Day 3 to Day 7 post ET infection. No oocysts in the feces were detected in the uninfected unmedicated control group (Group 1, Table 3). Fecal oocyst excretion was first detected on Day 4 post infection in all the ET-infected groups and reached its peak on Day 7 post infection (Group 2)."}, "[2]": {"system": "E. tenella (ET) sporozoites invading Madin-Darby bovine kidney (MDBK) cells", "assay": "Invasion assay (sporozoite entry into MDBK cells)", "format": "cell-based, Eimeria tenella", "details": "at 50 μg/ml; untreated invasion 20% of the cells", "protocol": "FIGS. 3A-C are photomicrographs (left panels) and bar graphs (right panels) illustrating the in vitro effects of formulations composed of A. indica (AI), B. pilosa (BP), or a mixture of A. indica (AI) and B. pilosa (BP) on E. tenella (ET) sporozoite invasion. Madin-Darby bovine kidney (MDBK) cells were incubated with salinomycin (Sal), or plant extracts containing A. indica (AI)(3A), B. pilosa (BP) (3B) or a mixture of AI and BP (3C) at indicated dosages for 0.5 h. The sporozoites were added to the MDBK cells for […]. After washing, the MDBK cells were stained with hematoxylin and eosin (H&E) and counted. The invasion percentage (%) was plotted into bar graphs. The inset represents a magnified area. Scale bars of microscope in 100× and 40× (inset) are 10 μm and 50 μm (inset), respectively. Arrowhead indicates the MDBK cells infected with sporozoites.\nInvasion assay. Madin-Darby bovine kidney (MDBK, ATCC® CCL-22) cells, grown in DMEM containing fetal bovine serum (10%) and supplements, were seeded onto glass cover slips in 24 wells at 2×10^5 cells/well. One day later, the cells were pre-incubated with DMEM medium containing salinomycin, or plant extracts and phytochemicals at doses indicated for 0.5 h. Fresh sporozoites (2×10^5) were added to the cells for additional 4 h. […]"}, "[3]": {"system": "E. tenella challenged chickens", "assay": "Body weight gain in E. tenella challenged chickens", "format": "in vivo, chicken", "details": "BP alone 0.01%, AI alone 0.01%", "text": "as §1\nas §2, with “All birds were maintained in the institutional animal facility and handled according to institutional guidelines.” left out\nBody weights (BW) of the chickens from FIG. 4B were monitored on Days 1, 7 and 14, and body-weight (BW) gains were calculated on Days 7 and 14. […]"}, "[4]": {"system": "E. tenella challenged chickens", "assay": "Survival rate in E. tenella challenged chickens", "format": "in vivo, chicken", "details": "ET-infected chickens (1×10^4 oocysts), substance in feed; infected standard feed 60%; FIG. 4B", "text": "as §1\nFIG. 4B is a graph showing survival rate in each group of FIG. 4A. Chickens were divided into eight groups: Group 1 (G1), uninfected and fed with a standard diet; Group 2 (G2), ET-infected and fed with a standard diet; Group 3 (G3) to Group 8 (G8), ET-infected and fed with diet containing salinomycin, BP alone, a combination of BP and different dosages of AI, or AI alone without BP as indicated. Each group has 15 chicks and P values are indicated.\nBirds, diets, and experimental design. One-day-old Lohmann broiler chicks hatched at Taichung Hatchery (Taiwan) were wing-banded upon arrival, weighed, and randomly placed in Petersime starter brooder units. At 1 to 2 days post-hatching, the birds were given free access to water and diets. […] Growth performance (body weight and feed conversion), pathology (bloody droppings and gut morphometry) and survival rate were measured and examined (FIG. 4A). […]"}, "[5]": {"system": "E. tenella challenged chickens", "assay": "Gross cecal lesion scores in E. tenella challenged chickens", "format": "in vivo, chicken", "details": "ceca, Day 7 post ET infection", "text": "as §1, §2, §3\nGross lesions in the ceca of the chickens from FIG. 4B were examined and scored. The uninfected unmedicated control chickens (Group 1, Table 4) had no lesions in the ceca (score=0). The ET infection caused more gross cecal lesions in the gut of unmedicated chickens, as evidenced by an average lesion score of 4 (Group 2) on Day 7 post infection."}, "[6]": {"system": "E. tenella challenged chickens", "assay": "Feed conversion rate in E. tenella challenged chickens", "format": "in vivo, chicken", "details": "BP alone 0.01%, AI alone 0.01% in feed", "text": "as §1\nas §2, with “guidelines. […]” for “guidelines.”"}, "[7]": {"system": "E. tenella challenged chickens", "assay": "Bloody stools in E. tenella challenged chickens", "format": "in vivo, chicken", "details": "Day 7 post ET infection, versus infected unmedicated birds (100%), FIG. 5", "text": "as §1\nFIG. 5 is a bar graph showing percentage of bloody stools in each chicken group of FIG. 4A-B on Day 7 post E. tenella (ET) infection. Chicken stools were classified on Day 1 to Day 7 post infection.\nas §2, with “All birds were maintained in the institutional animal facility and handled according to institutional guidelines.” left out"}, "[8]": {"system": "E. tenella challenged chickens", "assay": "Microscopic cecal lesion scores and histology in E. tenella challenged chickens", "format": "in vivo, chicken", "details": "ceca, Day 7 post ET infection", "text": "as §1, §2\nImmunohistochemical staining. Multiple parallel sections of the ceca from chickens that had access to control diet and the diet containing Artemisia indica (AI), B. pilosa (BP), or both for 14 days were flash-frozen. The sections were stained with H&E or anti-insulin antibody, with development of diaminobenzidine tetrahydrochloride, followed by image analysis (Yang et al. Research in Veterinary Science (2015) 98:74-81).\nas §3\nMucosal damages caused by coccidia were examined under microscope and scored as microscopic cecal lesions based on the distribution and severity of the mucosal destructions in the chicken cecum."}, "E. tenella oocysts": {"system": "E. tenella oocysts", "assay": "Sporulation assay", "format": "cell-based, Eimeria tenella", "details": "positive control, FIG. 2A", "protocol": "FIGS. 2A-C are photomicrographs (upper panels) and bar graphs (lower panels) illustrating the in vitro effects of formulations comprising A. indica (AI), B. pilosa (BP), or a mixture of A. indica (AI) and B. pilosa (BP) on viability of E. tenella (ET) oocysts and its sporulation. The oocysts were pre-treated with PBS, sodium dithionite (SD), an inhibitor of oocyst sporulation or plant extracts containing AI (2A), BP (2B), or both AI and BP (2C) at the indicated dosages for 48 h. The oocysts were induced to sporulate by potassium dichromate for 2 days. The percentage of sporulating oocysts was counted using a microscope ([…]) and plotted into bar graphs (right panel); scale bar is 200 μm. Arrow indicates sporulating oocysts whilst arrowhead indicates non-sporulating oocysts.\nSporulation assay. The E tenella oocysts were pre-treated with PBS, boiling (100° C. for 30 min) or plant extracts at indicated doses for 48 h. The oocysts were incubated with 2% potassium dichromate for 2 days before sporulation. The percentage of sporulating oocysts (%) was counted.\nThe effects of the plant extracts on sporulation of E. ET oocysts were tested. Seventy percent of ET oocysts were able to sporulate in the in vitro culture (PBS, FIG. 2A). […]"}}, "note": "“And” between values parts separate entries of the source, which are not always exact repeats. Identical values can stand only once. Marks after values point to notes of the source that are not given here.", "data": [{"smiles": "CC[C@@H](C(=O)[C@@H](C)[C@@H](O)[C@H](C)[C@@H]1O[C@@H]([C@@H](CC)C(=O)O)CC[C@@H]1C)[C@H]1O[C@]2(C=C[C@@H](O)[C@]3(CC[C@@](C)([C@H]4CC[C@](O)(CC)[C@H](C)O4)O3)O2)[C@H](C)C[C@@H]1C", "note": "[salinomycin, Salinomycin]", "values": [{"measurement": "oocysts per gram of feces versus infected unmedicated birds (Group 2), result in words", "setting": "[1]; Day 3 to Day 7 post ET infection", "value": "slightly less oocysts per gram of feces"}, {"measurement": "Ln(OPG ± 1), 3 days post-infection", "setting": "[1]; oocysts per gram feces, Day 3 post ET infection, BP alone 0.01%, AI alone 0.01% in feed", "value": "0 ± 0"}, {"measurement": "Ln(OPG ± 1), 4 days post-infection", "setting": "[1]; oocysts per gram feces, Day 4 post ET infection, BP alone 0.01%, AI alone 0.01% in feed", "value": "3.45 ± 0.16^a,b"}, {"measurement": "Ln(OPG ± 1), 5 days post-infection", "setting": "[1]; oocysts per gram feces, Day 5 post ET infection, BP alone 0.01%, AI alone 0.01% in feed", "value": "4.49 ± 0.02^a,b"}, {"measurement": "Ln(OPG ± 1), 6 days post-infection", "setting": "[1]; oocysts per gram feces, Day 6 post ET infection, BP alone 0.01%, AI alone 0.01% in feed", "value": "4.89 ± 0.01^a,b"}, {"measurement": "Ln(OPG ± 1), 7 days post-infection", "setting": "[1]; oocysts per gram feces, Day 7 post ET infection, BP alone 0.01%, AI alone 0.01% in feed", "value": "5.33 ± 0.01^a,b"}, {"measurement": "ET sporozoite invasion (invasion percentage of MDBK cells)", "setting": "[2]", "value": 10, "unit": "%"}, {"measurement": "BWG (g) Day 7-1", "setting": "[3]; body weight Day 7 minus Day 1, prior to ET infection, substance in feed from Day 1", "value": "27.64 ± 1.16", "unit": "g"}, {"measurement": "BWG (g) Day 14-1", "setting": "[3]; body weight Day 14 minus Day 1, ET oocysts (1×10^4) on Day 7, substance in feed Day 1 to 14", "value": "56.33 g and 56.33 ± 3.15 g"}, {"measurement": "survival rate", "setting": "[4]", "value": 100, "unit": "%"}, {"measurement": "Gross lesion score 0: number of chickens", "setting": "[5]; chickens in grade / n", "value": "0/15"}, {"measurement": "Gross lesion score 1: number of chickens", "setting": "[5]; chickens in grade / n", "value": "0/15"}, {"measurement": "Gross lesion score 2: number of chickens", "setting": "[5]; chickens in grade / n", "value": "0/15"}, {"measurement": "Gross lesion score 3: number of chickens", "setting": "[5]; chickens in grade / n", "value": "1/15"}, {"measurement": "Gross lesion score 4: number of chickens", "setting": "[5]; chickens in grade / n", "value": "6/15"}, {"measurement": "Gross lesion score, Average", "setting": "[5]; infected unmedicated 4.00, BP alone 0.01%, AI alone 0.01% in feed", "value": "3.86 and 3.86 ± 0.10"}, {"measurement": "FCR Day 7-1", "setting": "[6]; feed intake (Kg) divided by body weight gain on day 7, prior to ET infection", "value": "2.42 ± 0.08"}, {"measurement": "FCR Day 14-1", "setting": "[6]; feed intake (Kg) divided by body weight gain on day 14, ET-infected", "value": "3.05 and 3.05 ± 0.13"}, {"measurement": "percentage of bloody stools", "setting": "[7]", "value": "significantly decrease in the percentage of bloody stools"}, {"measurement": "Microscopic lesion score 0 (fraction)", "setting": "[8]", "value": "0/15"}, {"measurement": "Microscopic lesion score 1 (fraction)", "setting": "[8]", "value": "0/15"}, {"measurement": "Microscopic lesion score 3 (fraction)", "setting": "[8]", "value": "0/15"}, {"measurement": "Microscopic lesion score 5 (fraction)", "setting": "[8]", "value": "0/15"}, {"measurement": "Microscopic lesion score 7 (fraction)", "setting": "[8]", "value": "2/15"}, {"measurement": "Microscopic lesion score, Average", "setting": "[8]; infected unmedicated 7.20, BP alone 0.01%, AI alone 0.01% in feed", "value": "6.29 and 6.29 ± 0.13"}]}, {"smiles": "O=S([O-])S(=O)[O-].[Na+].[Na+]", "note": "[sodium dithionite]", "values": [{"measurement": "reduction of sporulation of ET oocysts as compared to the PBS treatment group", "setting": "E. tenella oocysts", "value": 40, "unit": "%"}]}]}
